Columns and labels:
NLRP3 [1] = target: T1, NLRP3 (Homo sapiens, UniProt Q96P20); assay: Human whole blood IL1β release assay; type: cell-based; parameters: Plate out 80 μl of whole blood containing 1 μg/ml of LPS in 96-well, clear bottom cell culture plate; from tissue; host or cells: human whole blood from healthy donors; conditions: NLRP3 inhibitory activity, 1 μg/ml LPS, nigericin 10 μM, IL-1β by AlphaLisa, read-out: HWB IC50
Experimental: For systemic delivery, the ability to inhibit NLRP3 when the compounds are present within the bloodstream is of great importance. For this reason, the NLRP3 inhibitory activity of a number of compounds in human whole blood was investigated in accordance with the following protocol.
Human whole blood in Li-heparin tubes was obtained from healthy donors from a volunteer donor panel. • 1. […] Incubate for 3 hrs at 37° C., 5% CO2 • 4. Add 10 μl nigericin (Sigma #N7143) (10 μM FAC) to all wells • 5. Incubate for 1 hr at 37° C., 5% CO2 • 6. At the end of the incubation period, spin plates at 300×g for 5 mins to pellet cells and remove 20 μl of supernatant and add to 96-well v-bottom plates for IL-1β analysis (note: these plates containing the supernatants can be stored at −80° C. to be analysed at a later date) • 7. IL-1β was measured according to the manufacturer protocol (Perkin Elmer-AlphaLisa IL-1 Kit AL220F-5000) • 8. IC50 data is fitted to a non-linear regression equation (log inhibitor vs response-variable slope 4-parameters)

NLRP3 [2] = target: T1, NLRP3; assay: THP-1 cells pyroptosis assay; type: cell-based; parameters: Seed THP-1 cells (25,000 cells/well) containing 1.0 μg/ml LPS in 40 μl of RPMI medium; host or cells: THP-1 cells; conditions: NLRP3 inhibitory activity, 1.0 μg/ml LPS, nigericin 5 μM, resazurin readout
Experimental: The cells were routinely passaged and grown to confluency (˜10^6 cells/ml). On the day of the experiment, THP-1 cells were harvested and resuspended into RPMI medium (without FBS). The cells were then counted and viability (>90%) checked by Trypan blue (Sigma #T8154). […] To this diluted cell solution was added LPS (Sigma #L4524) to give a 1 μg/ml Final Assay Concentration (FAC). 40 μl of the final preparation was aliquoted into each well of a 96-well plate. The plate thus prepared was used for compound screening.
The following method step-by-step assay was followed for compound screening. • 1. […] Incubate for 3 hrs at 37° C. in 5% CO2 • 4. Add 5 μl nigericin (Sigma #N7143) (FAC 5 μM) to all wells • 5. Incubate for 1 hr at 37° C. and 5% CO2 • 6. At the end of the incubation period, spin plates at 300×g for 3 mins and remove supernatant • 7. Then add 50 μl of resazurin (Sigma #R7017) (FAC 100 μM resazurin in RPMI medium without FBS) and incubate plates for a further 1-2 hrs at 37° C. and 5% CO2 • 8. […] IC50 data is fitted to a non-linear regression equation (log inhibitor vs response-variable slope 4-parameters)

[3] = PK protocol, intravenous administration in rats; type: in vivo; conditions: rat, 1 mg/kg, male Sprague Dawley rats, plasma; for Vd: read-out: Vdss
Experimental: Pharmacokinetic parameters were determined in male Sprague Dawley rats (Vital River Laboratory Animal Technology Co Ltd, Beijing, China, 7-9 weeks old). Animals were individually housed during the study and maintained under a 12 h light/dark cycle. Animals had free access to food and water.
For intravenous administration, compounds were formulated as a solution in DMSO:PBS [10:90] in 2 mL/kg dosing volume and administered via tail vein.
Serial blood samples (about 200 μL) were taken from each animal at each of 8 time-points post dose (0.083, 0.25, 0.5, 1, 2, 4, 8 and 24 h). Samples were held on ice for no longer than 30 minutes before centrifugation (5,696 rpm (3,000 g) for 15 minutes) for plasma generation. Plasma was frozen on dry ice prior to bioanalysis. PK parameters were generated from LC-MS/MS data using Phoenix WinNonlin 6.3 software.

T1 sequence (Q96P20 whole entry): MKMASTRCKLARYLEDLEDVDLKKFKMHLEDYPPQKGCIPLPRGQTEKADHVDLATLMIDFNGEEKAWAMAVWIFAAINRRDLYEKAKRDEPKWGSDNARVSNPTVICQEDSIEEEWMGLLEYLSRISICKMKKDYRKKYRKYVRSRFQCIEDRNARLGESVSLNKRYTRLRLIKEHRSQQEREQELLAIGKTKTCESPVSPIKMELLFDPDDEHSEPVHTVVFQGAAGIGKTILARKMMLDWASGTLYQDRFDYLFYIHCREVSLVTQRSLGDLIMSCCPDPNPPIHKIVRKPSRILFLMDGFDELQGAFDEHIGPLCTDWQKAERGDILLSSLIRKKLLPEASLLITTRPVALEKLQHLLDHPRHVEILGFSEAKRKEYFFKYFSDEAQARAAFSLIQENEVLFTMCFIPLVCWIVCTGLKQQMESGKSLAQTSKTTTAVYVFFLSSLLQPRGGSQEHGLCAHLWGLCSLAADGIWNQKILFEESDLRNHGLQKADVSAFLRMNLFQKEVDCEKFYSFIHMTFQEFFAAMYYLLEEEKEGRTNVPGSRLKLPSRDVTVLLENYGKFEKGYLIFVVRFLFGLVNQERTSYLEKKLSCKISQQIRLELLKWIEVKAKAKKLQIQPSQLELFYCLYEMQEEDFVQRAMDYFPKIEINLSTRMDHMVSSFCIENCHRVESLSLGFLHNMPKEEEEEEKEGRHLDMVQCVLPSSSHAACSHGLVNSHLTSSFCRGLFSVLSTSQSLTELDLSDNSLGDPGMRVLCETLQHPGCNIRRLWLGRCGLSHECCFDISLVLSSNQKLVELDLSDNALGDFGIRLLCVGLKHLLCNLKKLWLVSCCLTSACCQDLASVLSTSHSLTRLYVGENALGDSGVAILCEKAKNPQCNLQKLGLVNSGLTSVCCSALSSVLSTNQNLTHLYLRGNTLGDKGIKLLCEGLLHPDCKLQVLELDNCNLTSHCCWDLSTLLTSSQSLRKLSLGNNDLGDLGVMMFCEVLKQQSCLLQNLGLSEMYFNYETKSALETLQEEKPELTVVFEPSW

In the case of “5-(Azetidin-1-ylmethyl)-N-((4-fluoro-2,6-diisopropylphenyl) carbamoyl)-1-methyl-1H-pyrazole-3-sulfonimidamide [Example 23]”, the IC50 (NLRP3 [1]) is reported as under 5000 nM and the IC50 (NLRP3 [2]) is reported as under 100 nM.

COc1cc(-c2ccc3c(c2NC(=O)NS(=N)(=O)c2ccn(C(C)C)n2)CCC3)ccn1 (racemic) [Example 14, 1-Isopropyl-N-((5-(2-methoxypyridin-4-yl)-2,3-dihydro-1H-inden-4-yl)carbamoyl)-1H-pyrazole-3-sulfonimidamide] showed an AUC [3] of 1740 ng·h/mL, a clearance [3] of 9.6 mL/min/kg and a half-life [3] of 0.9 h. It also gave a Vd [3] of 0.34 L/kg, an IC50 (NLRP3 [1]) of under 500 nM and an IC50 (NLRP3 [2]) of under 100 nM.

In the case of CC(C)n1cc(Cl)c(S(=N)(=O)NC(=O)Nc2c3c(cc4c2CCC4)CCC3)n1 (centres unmarked) [Example 2, 4-Chloro-N-((1,2,3,5,6,7-hexahydro-s-indacen-4-yl)carbamoyl)-1-iso-propyl-1H-pyrazole-3-sulfonimidamide], the IC50 (NLRP3 [1]) is reported as under 5000 nM and the IC50 (NLRP3 [2]) is reported as under 100 nM.

C[C@@H](O)Cn1ccc(S(=N)(=O)NC(=O)Nc2c3c(cc4c2CCC4)CCC3)n1 (stereo partly drawn) [Example 3, N-((1,2,3,5,6,7-Hexahydro-s-indacen-4-yl)carbamoyl)-1-((R)-2-hydroxypropyl)-1H-pyrazole-3-sulfonimidamide] showed an AUC [3] of 2250 ng·h/mL, a clearance [3] of 7.4 mL/min/kg and a half-life [3] of 2.7 h. It also gave a Vd [3] of 0.75 L/kg, an IC50 (NLRP3 [1]) of under 500 nM and an IC50 (NLRP3 [2]) of under 100 nM.

With CCN(CC)CCCS(=N)(=O)NC(=O)Nc1c2c(cc3c1CCC3)CCC2 (centres unmarked) [Example 6, 3-(Diethylamino)-N-((1,2,3,5,6,7-hexahydro-s-indacen-4-yl)carbamoyl) propane-1-sulfonimidamide] the IC50 (NLRP3 [2]) was under 10000 nM.

CC(C)N1CC(S(=N)(=O)NC(=O)Nc2c3c(cc4c2CCC4)CCC3)C1 (centres unmarked) [Example 7, N-((1,2,3,5,6,7-Hexahydro-s-indacen-4-yl)carbamoyl)-1-isopropyl-azetidine-3-sulfonimidamide] showed an IC50 (NLRP3 [1]) of under 5000 nM and an IC50 (NLRP3 [2]) of under 5000 nM.

For CN(C)CCn1ccc(S(=N)(=O)NC(=O)Nc2c3c(cc4c2CCC4)CCC3)n1 (centres unmarked) [Example 10, 1-(2-(Dimethylamino)ethyl)-N-((1,2,3,5,6,7-hexahydro-s-indacen-4-yl)carbamoyl)-1H-pyrazole-3-sulfonimidamide], the IC50 (NLRP3 [1]) was under 500 nM and the IC50 (NLRP3 [2]) was under 500 nM.

In the case of COc1cc(-c2ccc3c(c2NC(=O)NS(=N)(=O)c2nn(C(C)C)cc2Cl)CCC3)ccn1 (centres unmarked) [Example 11, 4-Chloro-1-isopropyl-N-((5-(2-methoxypyridin-4-yl)-2,3-dihydro-1H-inden-4-yl)carbamoyl)-1H-pyrazole-3-sulfonimidamide], the AUC [3] is reported as 2720 ng·h/mL, the clearance [3] is reported as 6.1 mL/min/kg and the half-life [3] is reported as 1 h. For the same molecule, the Vd [3] was 0.45 L/kg, the IC50 (NLRP3 [1]) was under 1000 nM and the IC50 (NLRP3 [2]) was under 100 nM.

In the case of CC(C)c1cc(F)cc(-c2ccnc(C#N)c2)c1NC(=O)NS(=N)(=O)c1nn(C(C)C)cc1Cl (centres unmarked) [Example 12, 4-Chloro-N-((2-(2-cyanopyridin-4-yl)-4-fluoro-6-isopropylphenyl)carbamoyl)-1-isopropyl-1H-pyrazole-3-sulfonimidamide], the IC50 (NLRP3 [1]) is reported as under 500 nM and the IC50 (NLRP3 [2]) is reported as under 100 nM.

For COc1cc(-c2cc(F)cc(C(C)C)c2NC(=O)NS(=N)(=O)c2nn(C(C)C)cc2Cl)ccn1 (centres unmarked) [Example 13, 4-Chloro-N-((4-fluoro-2-isopropyl-6-(2-methoxypyridin-4-yl)phenyl)carbamoyl)-1-isopropyl-1H-pyrazole-3-sulfonimidamide], the IC50 (NLRP3 [1]) was under 1000 nM and the IC50 (NLRP3 [2]) was under 100 nM.

CC(C)c1cc(F)cc(-c2ccnc(C#N)c2)c1NC(=O)NS(=N)(=O)c1ccn(C(C)C)n1 (centres unmarked) [Example 15, N-((2-(2-Cyanopyridin-4-yl)-4-fluoro-6-isopropylphenyl)carbamoyl)-1-isopropyl-1H-pyrazole-3-sulfonimidamide] gave an IC50 (NLRP3 [1]) of under 1000 nM and an IC50 (NLRP3 [2]) of under 1000 nM.

With COc1cc(-c2cc(F)cc(C(C)C)c2NC(=O)NS(=N)(=O)c2ccn(C(C)C)n2)ccn1 (centres unmarked) [Example 16, N-((4-Fluoro-2-isopropyl-6-(2-methoxypyridin-4-yl)phenyl)carbamoyl)-1-isopropyl-1H-pyrazole-3-sulfonimidamide] the IC50 (NLRP3 [1]) was under 1000 nM and the IC50 (NLRP3 [2]) was under 100 nM.

COc1cc(-c2ccc3c(c2NC(=O)NS(=N)(=O)c2ccn(C[C@@H](C)O)n2)CCC3)ccn1 (stereo partly drawn) [Example 17, 1-((R)-2-Hydroxypropyl)-N-((5-(2-methoxypyridin-4-yl)-2,3-dihydro-1H-inden-4-yl)carbamoyl)-1H-pyrazole-3-sulfonimidamide] showed an IC50 (NLRP3 [1]) of under 500 nM and an IC50 (NLRP3 [2]) of under 100 nM.

With COc1cc(-c2cc(F)cc(C(C)C)c2NC(=O)NS(=N)(=O)c2ccn(C[C@@H](C)O)n2)ccn1 (stereo partly drawn) [Example 19, N-((4-Fluoro-2-isopropyl-6-(2-methoxypyridin-4-yl)phenyl)carbamoyl)-1-((R)-2-hydroxypropyl)-1H-pyrazole-3-sulfonimidamide] the IC50 (NLRP3 [1]) was under 1000 nM and the IC50 (NLRP3 [2]) was under 100 nM.

In the case of CC(c1cc(S(=N)(=O)NC(=O)Nc2c3c(cc4c2CCC4)CCC3)nn1C)N1CCC1 (centres unmarked) [Example 22, 5-(1-(Azetidin-1-yl)ethyl)-N-((1,2,3,5,6,7-hexahydro-s-indacen-4-yl)carbamoyl)-1-methyl-1H-pyrazole-3-sulfonimidamide], the IC50 (NLRP3 [1]) is reported as under 500 nM and the IC50 (NLRP3 [2]) is reported as under 100 nM.

In the case of CC(C)n1ccc(S(=N)(=O)NC(=O)Nc2c(-c3ccncc3)cc(F)c3c2CCC3)n1 (centres unmarked) [Example 24, N-((7-Fluoro-5-(pyridin-4-yl)-2,3-dihydro-1H-inden-4-yl)carbamoyl)-1-isopropyl-1H-pyrazole-3-sulfonimidamide], the IC50 (NLRP3 [1]) is reported as under 500 nM and the IC50 (NLRP3 [2]) is reported as under 100 nM.

Work on C[C@@H](O)Cn1ccc(S(=N)(=O)NC(=O)Nc2c(-c3ccncc3)cc(F)c3c2CCC3)n1 (stereo partly drawn) [Example 25, N-((7-Fluoro-5-(pyridin-4-yl)-2,3-dihydro-1H-inden-4-yl)carbamoyl)-1-((R)-2-hydroxypropyl)-1H-pyrazole-3-sulfonimidamide] yielded an IC50 (NLRP3 [1]) of under 500 nM and an IC50 (NLRP3 [2]) of under 100 nM.

CC(C)n1cc(Cl)c(S(=N)(=O)NC(=O)Nc2c(-c3ccncc3)cc(F)c3c2CCC3)n1 (centres unmarked) [Example 26, 4-Chloro-N-((7-fluoro-5-(pyridin-4-yl)-2,3-dihydro-1H-inden-4-yl)carbamoyl)-1-isopropyl-1H-pyrazole-3-sulfonimidamide] gave an IC50 (NLRP3 [1]) of under 500 nM and an IC50 (NLRP3 [2]) of under 100 nM.

For COc1cc(-c2ccc3c(c2NC(=O)N[S@@](=N)(=O)c2ccn(C(C)C)n2)CCC3)ccn1 [Example 27, (R)-1-Isopropyl-N-((5-(2-methoxypyridin-4-yl)-2,3-dihydro-1H-inden-4-yl)carbamoyl)-1H-pyrazole-3-sulfonimidamide], the IC50 (NLRP3 [1]) was under 500 nM and the IC50 (NLRP3 [2]) was under 100 nM.

Molecule COc1cc(-c2ccc3c(c2NC(=O)N[S@](=N)(=O)c2ccn(C(C)C)n2)CCC3)ccn1 [Example 28, (S)-1-Isopropyl-N-((5-(2-methoxypyridin-4-yl)-2,3-dihydro-1H-inden-4-yl)carbamoyl)-1H-pyrazole-3-sulfonimidamide] has an IC50 (NLRP3 [1]) of under 5000 nM and an IC50 (NLRP3 [2]) of under 1000 nM.

For “N-((2-(2-Cyanopyridin-4-yl)-4-fluoro-6-isopropylphenyl)carbamoyl)-1-((R)-2-hydroxypropyl)-1H-pyrazole-3-sulfonimidamide [Example 18]”, the IC50 (NLRP3 [1]) was under 500 nM and the IC50 (NLRP3 [2]) was under 500 nM.

— patent US11623922B2, “Compounds” (INFLAZOME LIMITED, priority 2017, dated 2023)
